Experiments:
[1] = molecular target: T1, PfTopoVIB (measured as PfTopoVIB-VIA complex) (Plasmodium falciparum, UniProt Q8I5N7+Q8ID53); assay: kDNA decatenation gel assay with yeast cell extract expressing PfTopoVIB-VIA; assay type: biochemical
T1 construct: gene PF3D7_1365600; full-length Myc-tagged PfTopoVIB co-expressed with Flag-tagged PfTopoVIA in S. cerevisiae, cell-free extract; with PfTopoVIA (PF3D7_1217100.1)

[2] = molecular target: T2, PfTopoVIB (topoisomerase VIB subunit of PfTopoVI) (Plasmodium falciparum, UniProt Q8ID53); assay: as above; assay type: biochemical
T2 construct: gene PF3D7_1365600; full-length Myc-tagged PfTopoVIB co-expressed with Flag-tagged PfTopoVIA in S. cerevisiae, cell-free extract; with PfTopoVIA (PF3D7_1217100.1)
T2 sequence (Q8ID53 1-561): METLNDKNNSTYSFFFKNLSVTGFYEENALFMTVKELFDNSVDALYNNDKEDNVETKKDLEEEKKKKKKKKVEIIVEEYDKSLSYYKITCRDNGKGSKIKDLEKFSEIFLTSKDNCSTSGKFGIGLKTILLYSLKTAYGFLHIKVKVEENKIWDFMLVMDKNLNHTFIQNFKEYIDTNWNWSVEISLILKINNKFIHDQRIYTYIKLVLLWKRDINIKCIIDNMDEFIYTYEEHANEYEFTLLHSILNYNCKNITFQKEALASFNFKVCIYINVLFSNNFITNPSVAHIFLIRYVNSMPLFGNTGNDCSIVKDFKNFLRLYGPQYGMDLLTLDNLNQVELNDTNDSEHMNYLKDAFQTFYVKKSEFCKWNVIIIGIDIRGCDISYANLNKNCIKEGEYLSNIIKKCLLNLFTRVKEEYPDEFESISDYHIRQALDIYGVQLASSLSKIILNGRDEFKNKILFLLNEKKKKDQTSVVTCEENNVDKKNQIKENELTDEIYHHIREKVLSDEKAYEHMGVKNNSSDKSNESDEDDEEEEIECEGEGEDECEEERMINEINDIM
T2 sequence (Q8I5N7 1-327 partner): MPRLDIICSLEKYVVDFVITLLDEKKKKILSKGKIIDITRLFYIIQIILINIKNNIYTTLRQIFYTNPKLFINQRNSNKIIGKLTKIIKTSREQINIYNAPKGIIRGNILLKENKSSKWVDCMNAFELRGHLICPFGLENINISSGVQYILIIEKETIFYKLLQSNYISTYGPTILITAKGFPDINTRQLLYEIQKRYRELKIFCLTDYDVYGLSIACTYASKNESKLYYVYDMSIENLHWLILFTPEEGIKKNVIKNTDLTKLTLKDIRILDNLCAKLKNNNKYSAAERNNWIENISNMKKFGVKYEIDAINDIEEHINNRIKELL

Structure (SMILES)	inhibition at 10 µM [1]	IC50 [2]
COc1cc([C@@H]2c3cc4c(cc3[C@@H](O[C@@H]3O[C@@H]5CO[C@@H](C)O[C@H]5[C@H](O)[C@H]3O)[C@H]3COC(=O)[C@H]23)OCO4)cc(OC)c1O [etoposide]	> 80%	–
C[C@@H]1C[C@H]2O[C@@H]2/C=C\C=C\C(=O)Cc2c(Cl)c(O)cc(O)c2C(=O)O1 [radicicol]	–	~80 µM
